The record followed here is patent publication US10399932B2, “Inhibitors of indoleamine-2,3-dioxygenase for the treatment of cancer” (BRISTOL-MYERS SQUIBB COMPANY, priority 2015, dated 2019).

The target of this experiment is human IDO1 (Homo sapiens, UniProt P14902). Nature of the experiment: Assessment of human IDO-1 inhibitory activity in HEK cells (human IDO1/HEK293 cells, Ehrlich reagent, absorbance at 490 nm). The format is cell-based. Also on record: expressed in transfected cells. As to conditions: In Vitro Potency in the HEK Human IDO-1 Cellular Assay. As for the experimental part:
Exemplary compounds were tested for inhibition of IDO activity.
HEK293 cells were transfected with a pCDNA-based mammalian expression vector harboring human IDO1 cDNA (NM 002164.2) by electroporation. They were cultured in medium (DMEM with 10% FBS) containing 1 mg/ml G418 for two weeks. Clones of HEK293 cells that stably expressed human IDO1 protein were selected and expanded for IDO inhibition assay.
The human IDO1/HEK293 cells were seeded at 10,000 cells per 50 μL per well with RPMI/phenol red free media contains 10% FBS in a 384-well black wall clear bottom tissue culture plate (Matrix Technologies LLC) 100 nL of certain concentration of compound was then added to each well using ECHO liquid handling systems. The cells were incubated for 20 hours in 37° C. incubator with 5% CO2.
The compound treatments were stopped by adding trichloroacetic acid (Sigma-Aldrich) to a final concentration at 0.2%. The cell plate was further incubated at 50° C. for 30 minute. The equal volume supernatant (20 μL) and 0.2% (w/v) Ehrlich reagent (4-dimethylaminobenzaldehyde, Sigma-Aldrich) in glacial acetic acid were mixed in a new clear bottom 384-well plate. This plate was then incubated at room temperature for 30 minute. The absorbance at 490 nm was measured on Envision plate reader.
Compound IC50 values were calculated using the counts of 500 nM of a reference standard treatment as one hundred percent inhibition, and counts of no compound but DMSO treatment as zero percent inhibition.

In general, IC50 refers to the concentration at which inhibition is half-maximal. Higher therefore signals lower potency.

Chain of human IDO1 (P14902 whole entry): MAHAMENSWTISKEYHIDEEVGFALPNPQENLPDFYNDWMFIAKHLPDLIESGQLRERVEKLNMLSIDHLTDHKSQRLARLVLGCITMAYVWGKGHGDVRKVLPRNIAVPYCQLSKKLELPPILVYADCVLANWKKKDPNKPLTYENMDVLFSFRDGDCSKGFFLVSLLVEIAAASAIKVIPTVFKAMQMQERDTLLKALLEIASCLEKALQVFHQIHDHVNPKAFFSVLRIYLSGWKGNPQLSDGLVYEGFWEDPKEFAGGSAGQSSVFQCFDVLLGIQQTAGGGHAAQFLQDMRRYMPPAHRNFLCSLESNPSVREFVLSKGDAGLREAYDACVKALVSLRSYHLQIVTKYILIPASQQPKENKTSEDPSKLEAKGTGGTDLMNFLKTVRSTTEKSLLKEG

The molecule `CCc1ccc(Nc2cc(C(C)CC(=O)O)ccc2N2C[C@@H](C)O[C@@H](C)C2)cc1` (single isomer, unassigned) [Example 746] displayed an IC50 above 50 nM.

For `CCOc1ncc(Nc2cc(C(C)CC(=O)O)ccc2N2C[C@@H](C)O[C@@H](C)C2)cn1` (single isomer, unassigned) [Example 748], the IC50 is above 50 nM.

Regarding `CCC(CC(=O)O)c1ccc(N2C[C@@H](C)O[C@@H](C)C2)c(Nc2ccc3nc(C)sc3c2)c1` (single isomer, unassigned) [Example 757], the IC50 was above 50 nM.

As to `CCC(CC(=O)O)c1ccc(N2C[C@@H](C)O[C@@H](C)C2)c(Nc2ccc(F)cc2)c1` (single isomer, unassigned) [Example 759], the IC50 was above 50 nM.

The molecule `CCC(CC(=O)O)c1ccc(N2CCC[C@@H]2C(C)(C)O)c(NC(=O)Nc2ccc(F)cc2)c1` (single isomer, unassigned) [Example 775] displayed an IC50 above 50 nM.

For `CCC(CC(=O)O)c1ccc(N2CCC[C@@H]2C(C)(C)O)c(NC(=O)Nc2ccc(Cl)cc2F)c1` (single isomer, unassigned) [Example 776], the IC50 is above 50 nM.

Molecule `CCC(CC(=O)O)c1ccc(N2CCC[C@@H]2C(C)(C)O)c(NC(=O)Nc2ccc(OC)cc2)c1` (single isomer, unassigned) [Example 777] yielded an IC50 above 50 nM.

Consider `CCOc1ccc(NC(=O)Nc2cc(C(CC)CC(=O)O)ccc2N2CCC[C@@H]2C(C)(C)O)cc1` (single isomer, unassigned) [Example 778], for which the IC50 was above 50 nM.

Molecule `CCC(CC(=O)O)c1ccc(N2CCC[C@@H]2C(C)(C)O)c(NC(=O)Nc2ccc(C)cc2)c1` (single isomer, unassigned) [Example 779] displayed an IC50 above 50 nM.

As for `CC(CC(=O)O)c1ccc(N2CCC[C@H]2C(C)(C)O)c(Nc2ccc(C#N)cc2)c1` (single isomer, unassigned) [Example 802], the IC50 was above 50 nM.

`CC(CC(=O)O)c1ccc(N2CCC[C@H]2C(C)(C)O)c(Nc2ccc(F)cc2)c1` (single isomer, unassigned) [Example 803] registered an IC50 above 50 nM.

`COc1ncc(Nc2cc(C(C)CC(=O)O)ccc2N2CCC[C@H]2C(C)(C)O)cn1` (single isomer, unassigned) [Example 805] displayed an IC50 above 50 nM.

As to `CCOc1ncc(Nc2cc(C(C)CC(=O)O)ccc2N2CCC[C@H]2C(C)(C)O)cn1` (single isomer, unassigned) [Example 806], the IC50 is above 50 nM.

For the molecule `CCC(CC(=O)O)c1ccc(N2CCC[C@H]2C(C)(C)O)c(NC(=O)Nc2ccc(OC)cc2)c1` (single isomer, unassigned) [Example 827], the half-inhibitory concentration (IC50) was above 50 nM.

For the molecule `CCC(CC(=O)O)c1ccc(N2CCC[C@H]2C(C)(C)O)c(NC(=O)Nc2ccc(Cl)cc2F)c1` (single isomer, unassigned) [Example 828], the IC50 is above 50 nM.

The molecule `CCC(CC(=O)O)c1ccc(N2CCC[C@H]2C(C)(C)O)c(NC(=O)Nc2ccc(F)cc2)c1` (single isomer, unassigned) [Example 829] yielded an IC50 above 50 nM.

Molecule `CCC(CC(=O)O)c1ccc(N2CCC[C@H]2C(C)(C)O)c(NC(=O)Nc2ccc(OC)cc2F)c1` (single isomer, unassigned) [Example 830] yielded an IC50 above 50 nM.

`CCC(CC(=O)O)c1ccc(N2CCC[C@H]2C(C)(C)O)c(Nc2ccnc(N3CCOCC3)n2)c1` (single isomer, unassigned) [Example 832] yielded an IC50 above 50 nM.

In turn, `CCC(CC(=O)O)c1ccc(N2CCC[C@H]2C(C)(C)O)c(Nc2ccc(OCC3CC3)cc2)c1` (single isomer, unassigned) [Example 834] showed a half-inhibitory concentration (IC50) above 50 nM.

In turn, `CCc1ccc(Nc2cc(C(CC)CC(=O)O)ccc2N2CCC[C@H]2C(C)(C)O)cc1` (single isomer, unassigned) [Example 835] registered an IC50 above 50 nM.

`CCC(CC(=O)O)c1ccc(N2CCC[C@H]2C(C)(C)O)c(Nc2cnc(OCC3CC3)nc2)c1` (single isomer, unassigned) [Example 838] yielded an IC50 above 50 nM.

For the molecule `CCC(CC(=O)O)c1ccc(N2CCC[C@H]2C(C)(C)O)c(Nc2cnc(OC)nc2)c1` (single isomer, unassigned) [Example 841], the IC50 was above 50 nM.

On to `CCC(CC(=O)O)c1ccc(N2CCOC[C@H]2C(C)C)c(NC(=O)Nc2ccc(C)cc2)c1` (single isomer, unassigned) [Example 907], for which the IC50 was above 50 nM.

Regarding `CCC(CC(=O)O)c1ccc(N2CCOC[C@H]2C(C)C)c(NC(=O)Nc2ccc(Cl)cc2F)c1` (single isomer, unassigned) [Example 908], the IC50 is below 50 nM.

Consider `Cc1ccc(NC(=O)Nc2cc(C(C)CC(=O)O)c(F)cc2N(CC(C)C)C2CCCCC2)cc1` (single isomer, unassigned) [Example 957, 3-(4-(Cyclohexyl(isobutyl)amino)-2-fluoro-5-(3-(p-tolyl)ureido)phenyl)butanoic acid], for which the IC50 was below 5 nM.

For the molecule `CC(C)CN(c1ccc(C(C)CC(=O)O)cc1NC(=O)Nc1cncnc1)C1CCOCC1` (single isomer, unassigned) [Example 964, 3-(4-(isobutyl(tetrahydro-2H-pyran-4-yl)amino)-3-(3-(pyrimidin-5-yl)ureido)phenyl) butanoic acid], the IC50 was above 50 nM.

Molecule `Cc1ccc(NC(=O)Nc2cc(C(C)CC(=O)O)ccc2N(CC(C)C)C2CCOCC2)cc1` (single isomer, unassigned) [Example 965, 3-(4-(isobutyl(tetrahydro-2H-pyran-4-yl)amino)-3-(3-(p-tolyl)ureido)phenyl)butanoic acid] displayed a half-maximal inhibitory concentration (IC50) below 50 nM.

Molecule `CCC(CC(=O)O)c1cc(F)c(N(CC(C)C)CC(C)C)c(NC(=O)Cc2ccc(C)cc2)c1` (single isomer, unassigned) [Example 980-2] gave an IC50 below 5 nM.

`CCC(CC(=O)O)c1cc(F)c(N(CC(C)C)CC(C)C)c(NC(=O)Nc2ccc(Cl)cc2F)c1` (single isomer, unassigned) [Example 981-2] returned an IC50 below 5 nM.

Consider `CCC(CC(=O)O)c1cc(F)c(N(CC(C)C)CC(C)C)c(NC(=O)Nc2ccc(C)c(F)c2)c1` (single isomer, unassigned) [Example 982-2], for which the IC50 is below 5 nM.

In turn, `COCC(CC(=O)O)c1ccc(N(CC(C)C)C2CCCCC2)c(NC(=O)Nc2ccc(Cl)cc2F)c1` (single isomer, unassigned) [Example 985-2] displayed an IC50 below 5 nM.

`COCC(CC(=O)O)c1ccc(N(CC(C)C)C2CCCCC2)c(NC(=O)Nc2cc(C)on2)c1` (single isomer, unassigned) [Example 987-2] came in with an IC50 below 50 nM.

`COCC(CC(=O)O)c1ccc(N(CC(C)C)C2CCCCC2)c(NC(=O)Nc2ccc(C)cc2)c1` (single isomer, unassigned) [Example 989-2] gave a 50% inhibitory concentration (IC50) below 5 nM.

Consider `COCC(CC(=O)O)c1ccc(N(CC(C)C)CC(C)C)c(NC(=O)Nc2ccc(C)cc2)c1` (single isomer, unassigned) [Example 993-2], for which the IC50 is below 50 nM.

`COCC(CC(=O)O)c1ccc(N(CC(C)C)CC(C)C)c(NC(=O)Nc2ccc(Cl)cc2F)c1` (single isomer, unassigned) [Example 995-2] showed an IC50 below 5 nM.

Take `COCC(CC(=O)O)c1ccc(N(CC(C)C)CC(C)C)c(NC(=O)Nc2cc(C)on2)c1` (single isomer, unassigned) [Example 999-2]: the IC50 was below 50 nM.

As to `Cc1ccc(CC(=O)Nc2cc(C(CC(=O)O)C(C)C)ccc2N(C)C(C)(C)C)cc1` (single isomer, unassigned) [Example 1007-2], the IC50 is above 50 nM.

Consider `CC(C)C(CC(=O)O)c1ccc(N(C)C(C)(C)C)c(Nc2nc3ccccc3o2)c1` (single isomer, unassigned) [Example 1008-2], for which the IC50 is above 50 nM.

With `CCC(CC(=O)O)c1ccc(N(CC(C)C)CC(C)C)c(NC(=O)Cc2ccc(C#N)cc2)c1` (single isomer, unassigned) [Example 1105, 3-(3-(2-(4-Cyanophenyl)acetamido)-4-(diisobutylamino)phenyl)pentanoic acid], the IC50 was below 5 nM.

Regarding `CCC(CC(=O)O)c1cc(NC(=O)Nc2ccc(C)cc2)c(N(CC(C)C)C2CCCCC2)cc1F` (single isomer, unassigned) [Example 1107, 3-(4-(Cyclohexyl(isobutyl)amino)-2-fluoro-5-(3-(p-tolyl)ureido)phenyl)pentanoic acid], the IC50 was below 5 nM.

Molecule `CCOc1ccc(NC(=O)Nc2cc(C(CC)CC(=O)O)c(F)cc2N(CC(C)C)C2CCCCC2)cc1` (single isomer, unassigned) [Example 1109, 3-(4-(Cyclohexyl(isobutyl)amino)-5-(3-(4-ethoxyphenyl)ureido)-2-fluorophenyl) pentanoic acid] had an IC50 below 5 nM.

Molecule `CCC(CC(=O)O)c1cc(NC(=O)Nc2ccc3c(c2)OCO3)c(N(CC(C)C)C2CCCCC2)cc1F` (single isomer, unassigned) [Example 1112, 3-(5-(3-(Benzo[d][1,3]dioxol-5-yl)ureido)-4-(cyclohexyl(isobutyl)amino)-2-fluorophenyl)pentanoic acid] returned an IC50 below 5 nM.
